Reference: patent US20210023012A1, “Solid Pharmaceutical Compositions for Treating HCV” (AbbVie Inc., priority 2019, published 2021)

Legend:
OATP1B1/3 = assay: Substrate of transporter OATP1B1/3; type: in vitro ADME
BCRP = biological target: T1, BCRP (Homo sapiens, UniProt Q9UNQ0); assay: Substrate of transporter BCRP; type: in vitro ADME
T1 sequence (Q9UNQ0 1-655): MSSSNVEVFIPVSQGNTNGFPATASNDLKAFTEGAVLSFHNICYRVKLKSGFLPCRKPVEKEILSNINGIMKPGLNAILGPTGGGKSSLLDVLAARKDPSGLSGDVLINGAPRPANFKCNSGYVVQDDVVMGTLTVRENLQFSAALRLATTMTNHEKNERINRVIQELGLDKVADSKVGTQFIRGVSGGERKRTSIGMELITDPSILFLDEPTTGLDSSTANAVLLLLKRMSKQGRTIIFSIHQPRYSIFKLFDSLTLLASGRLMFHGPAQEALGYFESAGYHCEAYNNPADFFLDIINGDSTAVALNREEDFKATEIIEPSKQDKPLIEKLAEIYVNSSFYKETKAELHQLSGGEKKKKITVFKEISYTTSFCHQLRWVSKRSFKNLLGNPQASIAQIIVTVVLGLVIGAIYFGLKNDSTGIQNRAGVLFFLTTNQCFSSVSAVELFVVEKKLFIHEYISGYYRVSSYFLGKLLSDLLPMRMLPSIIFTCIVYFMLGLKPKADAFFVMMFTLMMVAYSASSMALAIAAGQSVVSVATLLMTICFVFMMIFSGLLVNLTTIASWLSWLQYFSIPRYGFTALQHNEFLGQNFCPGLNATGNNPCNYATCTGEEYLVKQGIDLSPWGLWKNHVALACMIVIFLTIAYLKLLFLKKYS

| Structure (SMILES) | Substrate of transporter (OATP1B1/3) | Substrate of transporter (BCRP) |
| --- | --- | --- |
| CC(C)(C)[C@@H]1NC(=O)O[C@@H]2CCC[C@H]2OC/C=C/C(F)(F)c2nc3ccccc3nc2O[C@@H]2C[C@@H](C(=O)N[C@]3(C(=O)NS(=O)(=O)C4(C)CC4)C[C@H]3C(F)F)N(C2)C1=O [Compound 1] | OATP1B1/3 | – |
| COC(=O)N[C@H](C(=O)N1CCC[C@H]1c1nc2cc([C@H]3CC[C@H](c4cc5nc([C@@H]6CCCN6C(=O)[C@@H](NC(=O)OC)[C@@H](C)OC)[nH]c5cc4F)N3c3cc(F)c(N4CCC(c5ccc(F)cc5)CC4)c(F)c3)c(F)cc2[nH]1)[C@@H](C)OC [Compound 2] | – | not excluded |
